pKd: −log10 of the molar value.
Tests used:
[1] = target: T1, mouse Siglec-2-Fc-Avi (CD22) (Mus musculus, UniProt P35329); assay: SPR binding affinity to mouse CD22; conditions: steady-state analysis
T1 construct: made in house
T1 sequence (P35329 22-708 limits assumed): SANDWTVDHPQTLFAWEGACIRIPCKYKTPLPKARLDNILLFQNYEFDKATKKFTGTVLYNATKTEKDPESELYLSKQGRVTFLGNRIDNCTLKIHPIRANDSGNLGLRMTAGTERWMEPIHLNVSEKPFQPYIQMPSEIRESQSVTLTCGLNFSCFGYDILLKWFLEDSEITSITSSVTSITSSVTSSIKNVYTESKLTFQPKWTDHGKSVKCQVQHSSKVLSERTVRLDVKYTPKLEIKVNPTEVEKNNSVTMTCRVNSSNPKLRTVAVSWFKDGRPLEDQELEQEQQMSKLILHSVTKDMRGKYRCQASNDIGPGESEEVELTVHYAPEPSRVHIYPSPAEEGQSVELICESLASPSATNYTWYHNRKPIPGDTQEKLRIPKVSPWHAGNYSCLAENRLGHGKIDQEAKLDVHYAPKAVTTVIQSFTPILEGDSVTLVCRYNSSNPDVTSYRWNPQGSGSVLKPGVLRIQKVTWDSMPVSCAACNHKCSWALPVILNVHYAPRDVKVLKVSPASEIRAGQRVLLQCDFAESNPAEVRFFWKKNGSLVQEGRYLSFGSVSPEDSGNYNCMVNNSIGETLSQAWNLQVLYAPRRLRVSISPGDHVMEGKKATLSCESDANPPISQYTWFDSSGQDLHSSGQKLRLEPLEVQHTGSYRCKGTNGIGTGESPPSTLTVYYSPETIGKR
How it was run: (§1)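 SialoExo pretreatment, 4 h 37° C.; biotinylated CD22 on SA chip, Biacore 8K. Buffer 10 mM HEPES, 150 mM NaCl, 0.05% Tween-20, pH 7.5, 1% DMSO. Dissociation 120 s; solvent-corrected; steady-state KD.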

[2] = target: T2, human Siglec-2/CD22 protein (Homo sapiens, UniProt P20273); assay: SPR binding affinity to human CD22; conditions: steady-state analysis
T2 construct: purchased Acro Biosystems SI2-H82E3
T2 sequence (P20273 20-847): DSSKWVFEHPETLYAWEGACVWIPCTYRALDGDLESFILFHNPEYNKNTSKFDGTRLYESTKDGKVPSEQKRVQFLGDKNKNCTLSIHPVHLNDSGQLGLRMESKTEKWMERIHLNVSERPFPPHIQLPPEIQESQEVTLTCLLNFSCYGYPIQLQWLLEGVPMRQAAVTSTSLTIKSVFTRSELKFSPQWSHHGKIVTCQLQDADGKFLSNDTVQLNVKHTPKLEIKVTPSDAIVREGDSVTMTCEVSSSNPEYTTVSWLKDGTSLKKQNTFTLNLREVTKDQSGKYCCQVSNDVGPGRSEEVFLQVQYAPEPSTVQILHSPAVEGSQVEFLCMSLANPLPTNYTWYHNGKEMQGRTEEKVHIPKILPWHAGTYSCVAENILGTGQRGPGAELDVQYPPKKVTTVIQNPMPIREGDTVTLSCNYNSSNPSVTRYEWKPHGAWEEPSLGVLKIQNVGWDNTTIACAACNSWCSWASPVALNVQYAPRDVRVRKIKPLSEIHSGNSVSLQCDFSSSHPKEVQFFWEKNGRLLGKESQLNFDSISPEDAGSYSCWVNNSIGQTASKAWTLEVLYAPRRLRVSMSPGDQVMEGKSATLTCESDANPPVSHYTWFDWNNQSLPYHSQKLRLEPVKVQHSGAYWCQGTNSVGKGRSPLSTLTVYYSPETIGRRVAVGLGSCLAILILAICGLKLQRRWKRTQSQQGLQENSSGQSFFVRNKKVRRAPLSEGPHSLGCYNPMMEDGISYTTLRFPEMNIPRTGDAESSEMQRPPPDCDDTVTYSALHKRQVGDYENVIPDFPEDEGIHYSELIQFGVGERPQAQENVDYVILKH
How it was run: as §1

[3] = target: cynomolgus Siglec-2/CD22 (Macaca fascicularis, UniProt A0A2K5WCZ6); assay: biochemical; type: binding; conditions: SPR, steady-state analysis; read-out: Affinity cyno CD22
How it was run: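 SPR with desialylated (SialoExo, 4 h, 37° C.) cynomolgus CD22 amine-coupled to a CM5 chip. Running buffer 10 mM HEPES, 150 mM NaCl, 0.05% Tween-20, pH 7.5, 1% DMSO, with solvent correction; 120 s dissociation. Affinities from steady-state analysis.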

Sequence of cynomolgus Siglec-2/CD22 (A0A2K5WCZ6 entry or part of it): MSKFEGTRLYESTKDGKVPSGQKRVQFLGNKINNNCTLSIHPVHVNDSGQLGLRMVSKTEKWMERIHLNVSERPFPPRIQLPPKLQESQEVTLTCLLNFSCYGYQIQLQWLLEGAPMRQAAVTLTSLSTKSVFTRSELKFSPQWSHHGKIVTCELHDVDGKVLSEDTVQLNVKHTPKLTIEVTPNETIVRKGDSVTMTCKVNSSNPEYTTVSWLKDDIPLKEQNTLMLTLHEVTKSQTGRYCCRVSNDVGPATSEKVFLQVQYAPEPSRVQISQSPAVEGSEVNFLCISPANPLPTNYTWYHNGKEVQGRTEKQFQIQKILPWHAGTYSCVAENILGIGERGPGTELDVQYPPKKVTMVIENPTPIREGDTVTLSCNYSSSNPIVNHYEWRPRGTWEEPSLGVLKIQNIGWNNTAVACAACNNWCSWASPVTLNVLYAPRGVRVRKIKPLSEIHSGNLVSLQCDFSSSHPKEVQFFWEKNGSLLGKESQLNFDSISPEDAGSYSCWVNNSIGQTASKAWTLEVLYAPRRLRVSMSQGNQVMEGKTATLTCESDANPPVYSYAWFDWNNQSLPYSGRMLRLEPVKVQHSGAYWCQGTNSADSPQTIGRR

SMILES | pKd [1] | pKd [2] | pKd [3]
CCCCCCC[C@]1(C(=O)O)C[C@H](O)[C@@H](NC(=O)CO)[C@H]([C@H](O)[C@H](O)CNC(=O)Cc2ccc(Cl)cc2)O1 [Compound 206, (2R,4S,5R,6R)-6-((1R,2R)-3-(2-(4-chlorophenyl)acetamido)-1,2-dihydroxypropyl)-2-heptyl-4-hydroxy-5-(2-hydroxyacetamido)tetrahydro-2H-pyran-2-carboxylic acid] | 5.00 to 6.00 | > 6.00 | > 6.00
CCCNC(=O)CCCCCCO[C@]1(C(=O)O)C[C@H](O)[C@@H](NC(=O)CO)[C@H]([C@H](O)[C@H](O)CNC(=O)Cc2cccc(O)c2)O1 [Compound 207, (2R,4S,5R,6R)-6-((1R,2R)-1,2-dihydroxy-3-(2-(3-hydroxyphenyl)acetamido)propyl)-4-hydroxy-5-(2-hydroxyacetamido)-2-((7-oxo-7-(propylamino)heptyl)oxy)tetrahydro-2H-pyran-2-carboxylic acid] | 5.00 to 6.00 | 5.00 to 6.00 | 5.00 to 6.00
C#CCOCCCCCCO[C@]1(C(=O)O)C[C@H](O)[C@@H](NC(=O)Cc2nn[nH]n2)[C@H]([C@H](O)[C@H](O)CNC(=O)Cc2ccc(Cl)cc2)O1 [Compound 208, (2R,4S,5R,6R)-5-(2-(2H-tetrazol-5-yl)acetamido)-6-((1R,2R)-3-(2-(4-chlorophenyl)acetamido)-1,2-dihydroxypropyl)-4-hydroxy-2-((6-(prop-2-yn-1-yloxy)hexyl)oxy)tetrahydro-2H-pyran-2-carboxylic acid] | < 5.00 | 5.00 to 6.00 | > 6.00
C#CCOCCCCCCO[C@]1(C(=O)O)C[C@H](O)[C@@H](NC(=O)C(O)CO)[C@H]([C@H](O)[C@H](O)CNC(=O)Cc2ccc(Cl)cc2)O1 (stereo partly drawn) [Compound 210, (2R,4S,5R,6R)-6-((1R,2R)-3-(2-(4-chlorophenyl)acetamido)-1,2-dihydroxypropyl)-5-(2,3-dihydroxypropanamido)-4-hydroxy-2-((6-(prop-2-yn-1-yloxy)hexyl)oxy)tetrahydro-2H-pyran-2-carboxylic acid] | > 6.00 | 5.00 to 6.00 | > 6.00
C#CCOCCCCCCO[C@]1(C(=O)O)C[C@H](O)[C@@H](NC(=O)CNC)[C@H]([C@H](O)[C@H](O)CNC(=O)Cc2ccc(Cl)cc2)O1 [Compound 211] | > 6.00 | > 6.00 | > 6.00
C#CCCCCCCO[C@]1(C(=O)O)C[C@H](O)[C@@H](NC(=O)CO)[C@H]([C@H](O)[C@H](O)CNC(=O)Cc2ccc(C(F)F)cc2)O1 [Compound 212, (2R,4S,5R,6R)-6-((1R,2R)-3-(2-(4-(difluoromethyl)phenyl)acetamido)-1,2-dihydroxypropyl)-4-hydroxy-5-(2-hydroxyacetamido)-2-(oct-7-yn-1-yloxy)tetrahydro-2H-pyran-2-carboxylic acid] | > 6.00 | > 6.00 | > 6.00
C#CCOCCNC(=O)CCCCCCO[C@]1(C(=O)O)C[C@H](O)[C@@H](NC(=O)CO)[C@H]([C@H](O)[C@H](O)CNC(=O)Cc2ccc(C(F)F)cc2)O1 [Compound 213, (2R,4S,5R,6R)-6-((1R,2R)-3-(2-(4-(difluoromethyl)phenyl)acetamido)-1,2-dihydroxypropyl)-4-hydroxy-5-(2-hydroxyacetamido)-2-((7-oxo-7-((2-(prop-2-yn-1-yloxy)ethyl)amino)heptyl)oxy)tetrahydro-2H-pyran-2-carboxylic acid] | > 6.00 | > 6.00 | > 6.00
C#CCOCCNc1c(NCCCCCCO[C@]2(C(=O)O)C[C@H](O)[C@@H](NC(=O)CO)[C@H]([C@H](O)[C@H](O)CNC(=O)Cc3ccc(C(F)F)cc3)O2)c(=O)c1=O [Compound 216, (2R,4S,5R,6R)-6-((1R,2R)-3-(2-(4-(difluoromethyl)phenyl)acetamido)-1,2-dihydroxypropyl)-2-((6-((3,4-dioxo-2-((2-(prop-2-yn-1-yloxy)ethyl)amino)cyclobut-1-en-1-yl)amino)hexyl)oxy)-4-hydroxy-5-(2-hydroxyacetamido)tetrahydro-2H-pyran-2-carboxylic acid] | > 6.00 | > 6.00 | > 6.00
C#CCCC(=O)NCCCCCCO[C@]1(C(=O)O)C[C@H](O)[C@@H](NC(=O)CO)[C@H]([C@H](O)[C@H](O)CNC(=O)Cc2ccc(Cl)cc2)O1 [Compound 217, (2R,4S,5R,6R)-6-((1R,2R)-3-(2-(4-chlorophenyl)acetamido)-1,2-dihydroxypropyl)-4-hydroxy-5-(2-hydroxyacetamido)-2-((6-(pent-4-ynamido)hexyl)oxy)tetrahydro-2H-pyran-2-carboxylic acid] | 5.00 to 6.00 | > 6.00 | > 6.00
C#CCOCCNC(=O)NCCCCCCO[C@]1(C(=O)O)C[C@H](O)[C@@H](NC(=O)CO)[C@H]([C@H](O)[C@H](O)CNC(=O)Cc2ccc(Cl)cc2)O1 [Compound 218, (2R,4S,5R,6R)-6-((1R,2R)-3-(2-(4-chlorophenyl)acetamido)-1,2-dihydroxypropyl)-4-hydroxy-5-(2-hydroxyacetamido)-2-((6-(3-(2-(prop-2-yn-1-yloxy)ethyl)ureido)hexyl)oxy)tetrahydro-2H-pyran-2-carboxylic acid] | > 6.00 | > 6.00 | > 6.00
CC(=O)NCCOCCOCCOCCOCCC(=O)NCCCCCCO[C@]1(C(=O)O)C[C@H](O)[C@@H](NC(=O)CO)[C@H]([C@H](O)[C@H](O)CNC(=O)Cc2ccc(-c3ccccc3)cc2)O1 [Compound 219, (2R,4S,5R,6R)-6-((1R,2R)-3-(2-([1,1′-biphenyl]-4-yl)acetamido)-1,2-dihydroxypropyl)-2-((2,18-dioxo-6,9,12,15-tetraoxa-3,19-diazapentacosan-25-yl)oxy)-4-hydroxy-5-(2-hydroxyacetamido)tetrahydro-2H-pyran-2-carboxylic acid] | > 6.00 | > 6.00 | > 6.00
C#CCNc1c(NCCCCCCO[C@]2(C(=O)O)C[C@H](O)[C@@H](NC(=O)CO)[C@H]([C@H](O)[C@H](O)CNC(=O)Cc3ccc(C(F)F)cc3)O2)c(=O)c1=O [Compound 220, (2R,4S,5R,6R)-6-((1R,2R)-3-(2-(4-(difluoromethyl)phenyl)acetamido)-1,2-dihydroxypropyl)-2-((6-((3,4-dioxo-2-(prop-2-yn-1-ylamino)cyclobut-1-en-1-yl)amino)hexyl)oxy)-4-hydroxy-5-(2-hydroxyacetamido)tetrahydro-2H-pyran-2-carboxylic acid] | > 6.00 | > 6.00 | > 6.00
C#CCNc1c(NCCCCCCO[C@]2(C(=O)O)C[C@H](O)[C@@H](NC(=O)CO)[C@H]([C@H](O)[C@H](O)CNC(=O)Cc3ccc(-c4ccccc4)cc3)O2)c(=O)c1=O [Compound 221, (2R,4S,5R,6R)-6-((1R,2R)-3-(2-([1,1′-biphenyl]-4-yl)acetamido)-1,2-dihydroxypropyl)-2-((6-((3,4-dioxo-2-(prop-2-yn-1-ylamino)cyclobut-1-en-1-yl)amino)hexyl)oxy)-4-hydroxy-5-(2-hydroxyacetamido)tetrahydro-2H-pyran-2-carboxylic acid] | > 6.00 | > 6.00 | > 6.00
